Measurements: patent US20260183242A1, “FORMULATIONS COMPRISING A COMBINATION OF ACID-NEUTRALIZING POLYMERIC AND NON-POLYMERIC SUBSTANCES FOR ORAL ADMINISTRATION OF ACTIVE AGENTS” (Entera Bio Ltd., priority 2023, published 2026)
Where two headings read alike, the source gives them in different places.

Assays:
[1] = cited from earlier work
[2] = pH upon addition of test substance to 0.1 M HCl solution (pH 1.2), pH meter; assay type: physicochemical
Description: The solution pH was determined using an MP-103 pH-meter (MRC, Israel) equipped with ELC-10-00 electrode (MRC, Israel) or with a thin electrode HI1083 (HANNA instruments Inc.), shortly after dissolution and up to 26 hours later in order to ensure that the pH remained stable. The highest pH value obtained during the experimental time period was recorded in order to compare the acid-neutralizing capacity of each substance.
SNAC and the basic polymers sodium alginate, sodium carboxymethylcellulose in non-crosslinked (Na-CMC) and crosslinked (croscarmellose sodium, CCS) forms, and sodium starch glycolate (SSG) were dissolved in various volumes of 0.1 M HCl solution (pH 1.2) at concentrations of 1, 2, 4, 10, 20, 50, 100 and 150 mg/ml, and the solution pH was determined using an MP-103 pH-meter (MRC, Israel) equipped with ELC-10-00 electrode (MRC, Israel), as described in the Materials and Methods section hereinabove.
In order to obtain a beneficial rise in pH with a reduced loss of the active form of the absorption enhancer, the effect of various concentrations of different polymers containing carboxylate groups (sodium alginate, sodium starch glycolate, sodium carboxymethylcellulose, and croscarmellose sodium) on pH upon addition to a 0.1 M HCl solution (pH 1.2) was also evaluated. FIG. 3A presents pH values determined using an MP-103 pH-meter (MRC, Israel) equipped with ELC-10-00 electrode (MRC, Israel) and FIG. 3B presents pH values determined using an MP-103 pH-meter (MRC, Israel) equipped with a thin electrode HI1083 (HANNA instruments Inc.).

[3] = In vivo pig model: absorption of active agent from SNAC/SSG tablets with or without small proton-accepting agent; design: species or system mini-pigs; settings: both sexes, minipig; for Cmax: mini-pigs, preliminary data
Description: The effect of combination of SNAC, sodium starch glycolate (SSG) as an exemplary alkaline polymer and a small molecule proton-accepting agent (Sodium carbonate, arginine and/or Sodium Decanoate (C10)) on absorption of a therapeutically active agent was assessed in an in vivo pig model, which allows testing of orally administered unit dosage forms with conventional dimensions that are applicable also in humans. The following proteinaceous therapeutically active agents were tested: lixisenatide, octreotide, desmopressin, salmon calcitonin, PTH (1-34), leuprolide.
All formulation constituents were in a dry powder form and mixed geometrically using mortar and pestle. Thereafter, round flat tablets were prepared from the mixes using a punch and dye and dental manual press.
The obtained tablets were administered at monitored conditions with the aid of endoscope into the stomachs of 2 male and 2 female mini-pigs (about 45 kg) for each tested group on different visits. Pigs were deprived of food the night before the experiments and during the experiment and deprived of water an hour before the experiment and during the experiment.
Blood samples were taken from the jugular vein through an indwelling cannula at predetermined time points during the first hour post-dose (which reflects the absorption phase). Plasma was separated and the concentration of the tested model molecules in plasma was quantified using a suitable technique.
hPTH (1-34) was quantified using a commercially available Elisa kit for the determination of hPTH (1-34) in plasma or cell culture media (Quidel Corp. Athens, OH, USA; Cat #60-3900).
Octreotide was quantified using a commercially available Elisa kit for the determination of octreotide in plasma or cell culture media (BMA Biomedicals, Augst, Switzerland. Cat #S-1341).
Formulations containing the same therapeutically active agents were also formulated with 11% SSG and typically included about 0.3-0.5% by weight of the active agent, 85-90% by weight SNAC, and magnesium stearate as a lubricant (about 1% by weight), and the total weight of the tablet was 90-95 mg.

pepsin = experiment: Proteolysis of hPTH (1-34) by pepsin at various pH values; assay type: in vitro ADME; settings: 150 μg/ml pepsin, 37° C., 3 minutes; media pH 2-7
Description: The effect of pH on peptide proteolysis by pepsin was determined by incubating 13.5 μg/ml human parathyroid hormone (1-34) (hPTH (1-34)) with 150 μg/ml pepsin, at various pH values, and determining the percentage of hPTH (1-34) which remained. The amount of hPTH (1-34) remaining upon addition to 150 μg/ml pepsin at 37° C. was determined in media with different pH values, followed by immediate (10 second) vortex and centrifugation for 3 minutes at 4° C., 4000 RCF. The following media were used: simulated gastric fluid (pH 2), prepared from 0.01 M HCl and NaCl; phthalate buffer (pH 4 or 5); and phosphate buffer (pH 6 or 7).

[4] = drug alone, without absorption enhancer; cited from earlier work

Compound: CCNC(=O)[C@@H]1CCCN1C(=O)[C@H](CCCNC(=N)N)NC(=O)[C@H](CC(C)C)NC(=O)[C@@H](CC(C)C)NC(=O)[C@H](Cc1ccc(O)cc1)NC(=O)[C@H](CO)NC(=O)[C@H](Cc1c[nH]c2ccccc12)NC(=O)[C@H](Cc1c[nH]cn1)NC(=O)[C@@H]1CCC(=O)N1 [Leuprolide, leuprolide]
- T1/2 (IV half-life) ([1]; in vivo, iv): about 3 hours

Compound: O=C(O)CCCCCCCNC(=O)c1ccccc1O [SNAC, sodium 8-N-(2-hydroxybenzoyl)aminocaprylate]
- pH 5 minutes after dissolution ([2]; 10 mg/ml SNAC added to HCl solution (pH 1.2)): about 1.5
- pH 5 minutes after dissolution ([2]; 20 mg/ml SNAC added to HCl solution (pH 1.2)): 6.5
- pH 5 minutes after dissolution ([2]; 100 mg/ml SNAC added to HCl solution (pH 1.2)): about 7.5

Compound: NC(=O)CC[C@@H]1NC(=O)[C@H](Cc2ccccc2)NC(=O)[C@H](Cc2ccc(O)cc2)NC(=O)CCSSC[C@@H](C(=O)N2CCC[C@H]2C(=O)N[C@H](CCCN=C(N)N)C(=O)NCC(N)=O)NC(=O)[C@H](CC(N)=O)NC1=O [desmopressin]
- T1/2 (IV half-life) ([1]; in vivo, iv): 3 to 5 h

Compound: CC[C@H](C)[C@H](NC(=O)[C@H](CCC(=O)O)NC(=O)[C@H](CO)NC(=O)[C@@H](NC(=O)[C@@H](N)CO)C(C)C)C(=O)N[C@@H](CCC(N)=O)C(=O)N[C@@H](CC(C)C)C(=O)N[C@@H](CCSC)C(=O)N[C@@H](Cc1cnc[nH]1)C(=O)N[C@@H](CC(N)=O)C(=O)N[C@@H](CC(C)C)C(=O)NCC(=O)N[C@@H](CCCCN)C(=O)N[C@@H](Cc1cnc[nH]1)C(=O)N[C@@H](CC(C)C)C(=O)N[C@@H](CC(N)=O)C(=O)N[C@@H](CO)C(=O)N[C@@H](CCSC)C(=O)N[C@@H](CCC(=O)O)C(=O)N[C@@H](CCCN=C(N)N)C(=O)N[C@H](C(=O)N[C@@H](CCC(=O)O)C(=O)N[C@@H](Cc1c[nH]c2ccccc12)C(=O)N[C@@H](CC(C)C)C(=O)N[C@@H](CCCN=C(N)N)C(=O)N[C@@H](CCCCN)C(=O)N[C@@H](CCCCN)C(=O)N[C@@H](CC(C)C)C(=O)N[C@@H](CCC(N)=O)C(=O)N[C@@H](CC(=O)O)C(=O)N[C@H](C(=O)N[C@@H](Cc1cnc[nH]1)C(=O)N[C@@H](CC(N)=O)C(=O)N[C@@H](Cc1ccccc1)C(=O)O)C(C)C)C(C)C [hPTH (1-34), teriparatide]
- T1/2 (IV half-life) ([1]; intravenous): about 5 minutes
- AUC(0-t) ([3]; AUClast): 0.164 ng·h/mL
- AUC(0-t) ([3]; mean AUClast): 0.0978 ng·h/mL
- pH at which proteolysis by pepsin was inhibited (pepsin): ≥ 6

Compound: C[C@@H](O)[C@@H]1NC(=O)[C@H](CCCCN)NC(=O)[C@@H](Cc2c[nH]c3ccccc23)NC(=O)[C@H](Cc2ccccc2)NC(=O)[C@@H](NC(=O)[C@H](N)Cc2ccccc2)CSSC[C@@H](C(=O)N[C@H](CO)[C@@H](C)O)NC1=O [octreotide]
- T1/2 (IV half-life) ([1]; intravenous): about 1.5 hours
- Cmax ([3]; octreotide 0.3-0.5%, SNAC 85-90%, about 11% SSG, magnesium stearate, no PAA, read-out: mean Cmax): 2.09 ng/mL
- Cmax ([3]; octreotide, SSG 11% by weight formulation further including sodium decanoate (C10), read-out: Cmax): 2.94 ng/mL

Compound: CC[C@H](C)[C@H](NC(=O)[C@H](Cc1ccccc1)NC(=O)[C@H](CC(=O)O)NC(=O)[C@H](CCCNC(=N)N)NC(=O)[C@H](C)NC(=O)[C@H](C)NC(=O)[C@H](CC(C)C)NC(=O)[C@H](CC(N)=O)NC(=O)[C@H](CC(=O)O)NC(=O)[C@H](CC(C)C)NC(=O)[C@@H](NC(=O)[C@@H](NC(=O)[C@H](CC(N)=O)NC(=O)[C@H](CCSC)NC(=O)[C@H](CCC(=O)O)NC(=O)[C@H](CC(=O)O)NC(=O)[C@H](CO)NC(=O)[C@H](Cc1ccccc1)NC(=O)[C@H](CO)NC(=O)CNC(=O)[C@H](CC(=O)O)NC(=O)CNC(=O)[C@@H](N)Cc1c[nH]cn1)[C@@H](C)O)[C@@H](C)CC)C(=O)N[C@@H](CC(N)=O)C(=O)N[C@@H](Cc1c[nH]c2ccccc12)C(=O)N[C@@H](CC(C)C)C(=O)N[C@H](C(=O)N[C@@H](CCC(N)=O)C(=O)N[C@H](C(=O)N[C@@H](CCCCN)C(=O)N[C@H](C(=O)N[C@H](C(=O)N[C@@H](CC(=O)O)C(=O)O)[C@@H](C)O)[C@@H](C)CC)[C@@H](C)O)[C@@H](C)CC [teduglutide]
- oral (PO) bioavailability [4]: negligible

Compound: lixisenatide
- T1/2 (IV half-life) ([1]; in vivo, iv): about 3 hours

Compound: salmon calcitonin
- T1/2 (IV half-life) ([1]; in vivo, iv): 1 to 1.5 h
